Test results taken from patent US20100305207A1, “GLYCOGEN PHOSPHORYLASE INHIBITOR COMPOUND AND PHARMACEUTICAL COMPOSITION THEREOF” (priority 2007, published 2010).

How the values were obtained:
[1] = molecular target: T1, human liver glycogen phosphorylase a (HLGPa) (Homo sapiens, UniProt P06737); assay: Human liver glycogen phosphorylase a enzymatic activity assay; assay type: biochemical; details: 15 nM HLGPa, coupled resorufin fluorescence readout, 15 min preincubation; assay run with and without 10 mM glucose, not stated which applies
T1 construct: creating a full-length cDNA fused at the 5′ end to codons for methionine-glycine-alanine-histidine; 6x histidine tag (leader Met-Gly-Ala-His6-Gly-Gly) (N); Tev protease cleavage site (Glu-Asn-Leu-Tyr-Phe-Gln-Gly-Gly) (N); made in house; host or cells: E. coli (bacterial expression plasmid pTXK1007LTev)
T1 sequence (P06737 2-847): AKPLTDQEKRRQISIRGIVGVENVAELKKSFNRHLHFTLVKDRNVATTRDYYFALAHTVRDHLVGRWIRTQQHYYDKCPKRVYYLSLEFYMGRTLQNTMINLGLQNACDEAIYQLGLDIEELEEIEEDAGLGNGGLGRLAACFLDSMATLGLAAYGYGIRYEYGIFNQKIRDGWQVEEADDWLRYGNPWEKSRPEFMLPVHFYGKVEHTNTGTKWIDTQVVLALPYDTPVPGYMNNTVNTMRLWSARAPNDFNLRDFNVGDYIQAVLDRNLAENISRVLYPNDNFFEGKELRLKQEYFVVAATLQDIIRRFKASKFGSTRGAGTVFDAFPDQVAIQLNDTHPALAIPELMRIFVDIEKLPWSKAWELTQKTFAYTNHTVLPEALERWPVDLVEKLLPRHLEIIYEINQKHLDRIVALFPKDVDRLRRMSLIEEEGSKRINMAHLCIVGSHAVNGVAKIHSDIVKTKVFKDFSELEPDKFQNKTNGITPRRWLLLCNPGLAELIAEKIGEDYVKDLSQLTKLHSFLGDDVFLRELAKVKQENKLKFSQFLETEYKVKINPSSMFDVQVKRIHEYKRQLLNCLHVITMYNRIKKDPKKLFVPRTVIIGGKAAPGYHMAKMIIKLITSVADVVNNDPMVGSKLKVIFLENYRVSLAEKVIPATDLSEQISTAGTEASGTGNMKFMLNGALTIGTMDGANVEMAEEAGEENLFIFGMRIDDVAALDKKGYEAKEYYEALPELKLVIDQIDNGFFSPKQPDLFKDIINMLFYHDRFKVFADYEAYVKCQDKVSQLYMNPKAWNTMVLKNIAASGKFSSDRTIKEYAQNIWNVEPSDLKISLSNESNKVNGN
Source text: The purified glycogen phosphorylase (GP) enzyme, wherein glycogen phosphorylase is in the activated “a” state, referred to as human liver glycogen phosphorylase a (HLGPa), can be obtained according to the following procedures.
Human liver glycogen phosphorylase cDNA was amplified by polymerase chain reaction (PCR) from a commercially available human liver cDNA library (BD Biosciences). The cDNA was amplified as 2 overlapping fragments using the primers 5′[…]3′ with 5′[…]3′ and 5′[…]3′ with 5′[…]3′. PCR conditions were 94° C. 1 min., 55° C. 1 min., 72° C. 2 min. for 40 cycles using the enzyme Pfu Turbo (Stratagene), 0.5% DMSO, 250 uM each nucleotide triphosphate, and 0.4 uM each primer plus the buffer recommended by the polymerase manufacturer. Each PCR fragment was molecularly cloned and the DNA sequence of each insert was determined. […] The DNA sequence of both strands of the cDNA in pTXK1007LTev was determined. […]
Frozen purified glycogen phosphorylase (HLGPb) was thawed in at 4° C. then dialyzed overnight into 50 mM HEPES, 100 mM NaCl, pH 7.4. […] The degree of phosphorylation was monitored by following the increase in activity at 10 minute intervals using the assay system outlined below. […]

male CD rats = assay: In vivo glucagon challenge model; design: species or system rat; details: glucagon 10 ug/kg + Sandostatin 0.5 mg/kg i.v. 2 hr after dosing, serum glucose 0-20 min
Procedure: Jugular vein cannulated male CD rats (220-260 g) (Charles Rivers, Raleigh, N.C.) were received 1-2 days after cannulation, housed individually on Alpha-dri™ bedding (Shepherd Specialty Papers, Inc., Kalamazoo, Mich.) with free access to food (Lab Diet 5001, PMI Nutrition International, Brentwood, Mo.) and water and maintained on a 12 h light/dark cycle at 21° C. and 50% relative humidity for 3-4 days prior to the glucagon challenge studies. On the day of the study, the rats were sorted by body weight into treatment groups (N=4-5) and housed individually in shoe box cages with clean Alpha-dri bedding. The cannula lines were opened by removal of 0.2 ml blood and flushed with 0.2 ml sterile saline. After a one hour acclimation, blood samples were collected to determine basal glucose and the rats were orally dosed with vehicle (5% DMSO: 30% Solutol HS15: 20% PEG400: 45% 25 mM N-methylglucamine) or drug (5 ml/kg). Two hr after drug dosing, a time zero blood sample (0.4 ml) was collected for determination of glucose and the rats were dosed through the jugular vein with Sandostatin, 0.5 mg/kg, (Novartis Pharmaceuticals Corp., East Hanover, N.J.) and glucagon, 10 ug/kg (Bedford Laboratories, Bedford, Ohio). Blood samples were collected after 10 and 20 min for glucose determination. Whole blood was placed in a Terumo Capiject blood collection tube (Terumo Medical Corp., Elkton, Md.), allowed to sit at room temperature for 20-30 minutes and then centrifuged (3,000×G) to obtain serum. Serum levels of glucose were determined using an Olympus AU640™ clinical chemistry immuno-analyzer (Olympus America Inc., Melville, N.Y.). The % reduction (% R) of the vehicle glucose AUC was calculated for each drug treatment using the formula % reduction=100*1−(AUC drug/AUC vehicle), where AUG was calculated from serum glucose values using the equation AUG=(T0+T10)/2*10+(T10+T20)/2*10−(T0*20).

`COCCOc1ccc(C(=O)N[C@H](C(=O)O)[C@@H](C)OC(C)(C)C)c(NC(=O)Nc2c(C)cc(CC3CC3)cc2C)c1` [Example 1, N-[(2-[({[4-(Cyclopropylmethyl)-2,6-dimethylphenyl]amino}carbonyl)amino]-4-{[2-(methyloxy)ethyl]oxy}phenyl)carbonyl]-O-(1,1-dimethylethyl)-L-threonine] was tested. Which IC50 [1] did it give?
The IC50 was 4 nM.

What about the “% R (% reduction of the vehicle glucose AUC)” value (male CD rats; 0.1 mg/kg oral) of the same compound?
Its value is 4%.

What about the “% R (% reduction of the vehicle glucose AUC)” value (male CD rats; 0.5 mg/kg oral) of the same compound?
Its value is 36%.

And the “% R (% reduction of the vehicle glucose AUC)” value (male CD rats; 2 mg/kg oral)?
The value was 48%.

And the “% R (% reduction of the vehicle glucose AUC)” value (male CD rats; 5 mg/kg oral)?
Its value is 76%.
